Laboratory results taken from patent US7645756B2, “Nitrogenous fused heteroaromatic ring derivative” (Banyu Pharmaceutical Co. Ltd., priority 2004, dated 2010).

Target: T1, human histamine-3 receptor (Homo sapiens, UniProt Q9Y5N1)
T1 construct: expressed in transfected cells; host or cells: HEK293 and CHO-K1 (membrane preparation)
Assay: Histamine analogue-binding inhibition test ([35S]GTPγS binding, SPA)
Type: biochemical
Conditions: for IC50: 50% inhibitory concentration to the specific [35S]GTPγS binding, membrane specimen of histamine-3 receptor expressing cells (HEK293, CHO-K1), 20 nM R-methylhistamine, 25° C., 3 hours; for inhibition of the binding of N-alpha-methylhistamine (histamine analogue) to histamine-H3 receptor: summary in words of the table's results
Text: A cDNA sequence coding for a human histamine-3 receptor [see International Laid-Open WO00/39164) was cloned with expression vectors pCR2.1, pEF1x (by Invitrogen) and pCI-neo (by Promega). The resulting expression vector was transfected into host cells, HEK293 and CHO-K1 (American Type Culture Collection), according to a cationic lipid process [see Proceedings of the National Academy of Sciences of the United States of America, Vol., 84, p. 7413 (1987)] to obtain histamine-3 receptor expression cells.
A membrane specimen prepared from the cells having expressed a histamine-3 receptor was incubated in an assay buffer (50 mM Tris buffer, 100 mM NaCl, 5 mM MgCl2, pH 7.4) along with a test compound, 20 nM R-methylhistamine (histamine analogue, by Sigma), 10?M GDP (guanine nucleotide diphosphate, by Sigma), 200 pM [^35S]GTPγS (guanine nucleotide triphosphate analogue, by Amersham) and SPA resin (W heat germ agglutinin SPA beads, by Amersham) therein, on a 96-well optiplate (by Packard) at 25° C. for 3 hours, then centrifuged at 3,000 rpm, and the activity was determined with Topcount (by Packard). The non-specific binding was determined in the presence of 10 μM GTPγS (by Sigma), and the 50% inhibitory concentration (IC50) of the test compound to the specific [^35S]GTPγS binding was calculated [see British Journal of Pharmacology, Vol. 135, p. 383 (2002)].

T1 sequence (Q9Y5N1 whole entry): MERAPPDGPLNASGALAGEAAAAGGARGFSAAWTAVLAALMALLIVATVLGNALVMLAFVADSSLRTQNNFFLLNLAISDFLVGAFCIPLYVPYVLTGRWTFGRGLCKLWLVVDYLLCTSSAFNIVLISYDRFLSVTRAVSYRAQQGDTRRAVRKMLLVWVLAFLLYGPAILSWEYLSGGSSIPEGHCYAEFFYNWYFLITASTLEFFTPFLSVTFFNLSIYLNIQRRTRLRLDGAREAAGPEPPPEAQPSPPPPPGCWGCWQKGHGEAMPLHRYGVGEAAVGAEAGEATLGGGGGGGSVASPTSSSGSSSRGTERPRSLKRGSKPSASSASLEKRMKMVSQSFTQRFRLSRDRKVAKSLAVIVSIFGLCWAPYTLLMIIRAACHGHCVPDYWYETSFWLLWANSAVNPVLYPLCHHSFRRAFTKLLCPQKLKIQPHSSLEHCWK

| Compound | IC50 [nM] | inhibition of the binding of N-alpha-methylhistamine (histamine analogue) to histamine-H3 receptor |
| --- | --- | --- |
| 2-[4-(3-piperidin-1-ylpropoxy)-phenyl]-3aH-pyrazolo[1,5-d][1,2,4]triazine [Example 1] | 6.8 | strongly inhibited |
| 3-Phenyl-6-[6-(3-piperidin-1-ylpropyl)-pyridin-3-ylmethoxy]-[1,2,4]triazolo[3,4-a]phthalazine [Example 24] | 10 | strongly inhibited |
| c1cc(-c2ccc3nncn3n2)ccc1OCCCN1CCCCC1 [Example 10, 6-[4-(3-piperidin-1-ylpropoxy)phenyl]-[1,2,4]triazolo[4,3-b]pyridazine] | 1.8 | strongly inhibited |
| Cc1nn2cnnc2cc1-c1ccc(OCCCN2CCCCC2)cc1 [Example 19, 6-Methyl-7-[4-(3-Piperidin-1-ylpropoxy)-phenyl]-[1,2,4]triazolo[4,3-b]pyridazine] | 1.4 | strongly inhibited |

Other lines, results leading:

| IC50 [nM] | inhibition of the binding of N-alpha-methylhistamine (histamine analogue) to histamine-H3 receptor | Compound |
| --- | --- | --- |
| 0.1 | strongly inhibited | Cc1nnc2c3cccnc3c(-c3ccc(OCCCN4CCCCC4)cc3)nn12 [Example 30, 3-Methyl-6-[4-(3-piperidin-1-ylpropoxy)-phenyl]-pyrido[3,2-d][1,2,4]triazolo[4,3-b]pyridazine] |
| 0.23 | strongly inhibited | c1cc2c(-c3ccc(OCCCN4CCCCC4)cc3)nn3cnnc3c2cn1 [Example 69] |
